Experimental data reported in patent US8791123B2, “Substituted pyrazolo[1,5-a]pyrimidine compounds as Trk kinase inhibitors” (Array Biopharma, Inc., priority 2009, dated 2014).

How the values were obtained:
[1] = biological target: TrkA (histidine-tagged recombinant human TrkA, cytoplasmic domain) (Homo sapiens (Human), UniProt P04629); experiment: TrkA ELISA Assay; format: biochemical; settings: Table 1; ELISA, 500 μM ATP; read-out: TrkA Enzyme IC50
Outline: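 ELISA read-out: a peroxidase-linked anti-phosphotyrosine antibody (PY20, 0.2 μg/mL) with TMB substrate, absorbance at 450 nm after acid stop. The plate-bound substrate was poly(Glu,Ala,Tyr; 6:3:1) at 0.025 mg/mL, phosphorylated by the recombinant His-tagged human TrkA cytoplasmic domain in the presence of inhibitors.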

Human Jak2 kinase domain = Human Jak2 kinase domain (Homo sapiens (Human), UniProt O60674); experiment: Jak2 Inhibition Assay (Omnia kinase assay); format: biochemical; settings: Table 1; 500 μM ATP; >1000 nM when >50% inhibition not observed at 1000 nM; read-out: Jak2 Enzyme IC50
Human Jak2 kinase domain, sequence (O60674 808-1132): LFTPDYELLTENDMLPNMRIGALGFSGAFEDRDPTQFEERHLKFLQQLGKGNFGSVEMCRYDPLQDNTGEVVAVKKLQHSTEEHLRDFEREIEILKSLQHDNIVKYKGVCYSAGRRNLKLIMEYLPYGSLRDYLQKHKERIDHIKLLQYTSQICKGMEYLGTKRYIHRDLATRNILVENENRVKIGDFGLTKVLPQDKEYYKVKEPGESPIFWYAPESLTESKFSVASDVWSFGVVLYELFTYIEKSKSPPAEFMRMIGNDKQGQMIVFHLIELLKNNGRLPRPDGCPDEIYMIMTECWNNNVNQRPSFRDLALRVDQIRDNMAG

TrkA (histidine-tagged recombinant human TrkA, cytoplasmic domain), sequence (P04629 440-796): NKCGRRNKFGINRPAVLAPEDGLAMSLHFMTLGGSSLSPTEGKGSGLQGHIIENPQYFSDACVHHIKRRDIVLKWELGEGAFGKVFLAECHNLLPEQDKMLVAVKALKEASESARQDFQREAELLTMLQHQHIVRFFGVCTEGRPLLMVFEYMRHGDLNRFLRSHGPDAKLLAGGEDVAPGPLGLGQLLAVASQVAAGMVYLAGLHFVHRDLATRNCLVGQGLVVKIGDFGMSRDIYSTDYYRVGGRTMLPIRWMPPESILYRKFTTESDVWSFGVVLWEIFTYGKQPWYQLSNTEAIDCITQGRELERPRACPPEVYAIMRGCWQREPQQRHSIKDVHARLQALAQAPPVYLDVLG

| IC50 [1] [nM] | IC50 (Human Jak2 kinase domain) [nM] | Structure (SMILES) |
| --- | --- | --- |
| 32.7 | > 1000 | COc1ncc(F)cc1[C@H]1CCCN1c1ccn2ncc(C(=O)N3CC(O)C3)c2n1 [Example 139, (R)-(5-(2-(5-fluoro-2-methoxypyridin-3-yl)pyrrolidin-1-yl)pyrazolo[1,5-a]pyrimidin-3-yl)(3-hydroxyazetidin-1-yl)methanone] |
| 8 | > 1000 | COc1ncc(F)cc1[C@H]1CCCN1c1ccn2ncc(C(=O)NC[C@H](O)CO)c2n1 [Example 143, N—((S)-2,3-dihydroxypropyl)-5-((R)-2-(5-fluoro-2-methoxypyridin-3-yl)pyrrolidin-1-yl)pyrazolo[1,5-a]pyrimidine-3-carboxamide] |
| 30.8 | > 1000 | COc1ncc(F)cc1[C@H]1CCCN1c1ccn2ncc(C(=O)N3CC(C)(O)C3)c2n1 [Example 147, (R)-(5-(2-(5-fluoro-2-methoxypyridin-3-yl)pyrrolidin-1-yl)pyrazolo[1,5-a]pyrimidin-3-yl)(3-hydroxy-3-methylazetidin-1-yl)methanone] |
| 1.1 | > 1000 | COc1ncc(F)cc1[C@H]1CCCN1c1ccn2ncc(C(=O)NCCCO)c2n1 [Example 148, (R)-5-(2-(5-fluoro-2-methoxypyridin-3-yl)pyrrolidin-1-yl)-N-(3-hydroxypropyl)pyrazolo[1,5-a]pyrimidine-3-carboxamide] |
| 6.1 | > 1000 | COc1ncc(F)cc1[C@H]1CCCN1c1ccn2ncc(C(=O)NCC(O)CO)c2n1 (stereo partly drawn) [Example 149, N-(2,3-dihydroxypropyl)-5-((R)-2-(5-fluoro-2-methoxypyridin-3-yl)pyrrolidin-1-yl)pyrazolo[1,5-a]pyrimidine-3-carboxamide] |
| 5.7 | > 1000 | COc1ncc(F)cc1[C@H]1CCCN1c1ccn2ncc(C(=O)NC[C@@H](O)CO)c2n1 [Example 150, N-((R)-2,3-dihydroxypropyl)-5-((R)-2-(5-fluoro-2-methoxypyridin-3-yl)pyrrolidin-1-yl)pyrazolo[1,5-a]pyrimidine-3-carboxamide] |
| 1.4 | > 1000 | COc1ncc(F)cc1[C@H]1CCCN1c1ccn2ncc(C(=O)NCCCCO)c2n1 [Example 151, (R)-5-(2-(5-fluoro-2-methoxypyridin-3-yl)pyrrolidin-1-yl)-N-(4-hydroxybutyl)pyrazolo[1,5-a]pyrimidine-3-carboxamide] |

The next lines start with the compound.

| Structure (SMILES) | IC50 [1] [nM] | IC50 (Human Jak2 kinase domain) [nM] |
| --- | --- | --- |
| O=C(c1cnn2ccc(N3CCC[C@@H]3c3cncc(F)c3)nc12)N1CCC1 [Example 126, (R)-azetidin-1-yl(5-(2-(5-fluoropyridin-3-yl)pyrrolidin-1-yl)pyrazolo[1,5-a]pyrimidin-3-yl)methanone] | 218 | > 1000 |
| O=C(c1cnn2ccc(N3CCC[C@@H]3c3cncc(F)c3)nc12)N1CC(CO)C1 [Example 127, (R)-(5-(2-(5-fluoropyridin-3-yl)pyrrolidin-1-yl)pyrazolo[1,5-a]pyrimidin-3-yl)(3-(hydroxymethyl)azetidin-1-yl)methanone] | 470 | > 1000 |
| O=C(c1cnn2ccc(N3CCC[C@@H]3c3cncc(F)c3)nc12)N1CC[C@H](O)C1 [Example 128, (5-((R)-2-(5-fluoropyridin-3-yl)pyrrolidin-1-yl)pyrazolo[1,5-a]pyrimidin-3-yl)((S)-3-hydroxypyrrolidin-1-yl)methanone] | 2600 | > 1000 |
| C[C@@H](NC(=O)c1cnn2ccc(N3CCC[C@@H]3c3cncc(F)c3)nc12)C(F)(F)F [Example 129, 5-((R)-2-(5-fluoropyridin-3-yl)pyrrolidin-1-yl)-N-((R)-1,1,1-trifluoropropan-2-yl)pyrazolo[1,5-a]pyrimidine-3-carboxamide] | 8 | > 1000 |
| C[C@H](NC(=O)c1cnn2ccc(N3CCC[C@@H]3c3cncc(F)c3)nc12)C(F)(F)F [Example 130, 5-((R)-2-(5-fluoropyridin-3-yl)pyrrolidin-1-yl)-N-((S)-1,1,1-trifluoropropan-2-yl)pyrazolo[1,5-a]pyrimidine-3-carboxamide] | 1.7 | > 1000 |
| O=C(NCC(F)(F)F)c1cnn2ccc(N3CCC[C@@H]3c3cncc(F)c3)nc12 [Example 131, (R)-5-(2-(5-fluoropyridin-3-yl)pyrrolidin-1-yl)-N-(2,2,2-trifluoroethyl)pyrazolo[1,5-a]pyrimidine-3-carboxamide] | 5 | > 1000 |
| CC(C)(CO)NC(=O)c1cnn2ccc(N3CCC[C@@H]3c3cncc(F)c3)nc12 [Example 132, (R)-5-(2-(5-fluoropyridin-3-yl)pyrrolidin-1-yl)-N-(1-hydroxy-2-methylpropan-2-yl)pyrazolo[1,5-a]pyrimidine-3-carboxamide] | 44.4 | > 1000 |
| O=C(N[C@@H]1CCC[C@H]1O)c1cnn2ccc(N3CCC[C@@H]3c3cncc(F)c3)nc12 [Example 133, 5-((R)-2-(5-fluoropyridin-3-yl)pyrrolidin-1-yl)-N-((1R,2R)-2-hydroxycyclopentyl)pyrazolo[1,5-a]pyrimidine-3-carboxamide] | 16 | > 1000 |
| O=C(NCC(F)F)c1cnn2ccc(N3CCC[C@@H]3c3cncc(F)c3)nc12 [Example 134, (R)-N-(2,2-difluoroethyl)-5-(2-(5-fluoropyridin-3-yl)pyrrolidin-1-yl)pyrazolo[1,5-a]pyrimidine-3-carboxamide] | 7.4 | > 1000 |
| O=C(N[C@@H]1CCC[C@@H]1O)c1cnn2ccc(N3CCC[C@@H]3c3cncc(F)c3)nc12 [Example 135, 5-((R)-2-(5-fluoropyridin-3-yl)pyrrolidin-1-yl)-N-((1R,2S)-2-hydroxycyclopentyl)pyrazolo[1,5-a]pyrimidine-3-carboxamide] | 142 | > 1000 |
| O=C(N[C@@H]1CCCC[C@H]1O)c1cnn2ccc(N3CCC[C@@H]3c3cncc(F)c3)nc12 [Example 136, 5-((R)-2-(5-fluoropyridin-3-yl)pyrrolidin-1-yl)-N-((1R,2R)-2-hydroxycyclohexyl)pyrazolo[1,5-a]pyrimidine-3-carboxamide] | 26.3 | > 1000 |
| O=C(c1cnn2ccc(N3CCC[C@@H]3c3cncc(F)c3)nc12)N1CCCCC1 [Example 137, (R)-(5-(2-(5-fluoropyridin-3-yl)pyrrolidin-1-yl)pyrazolo[1,5-a]pyrimidin-3-yl)(piperidin-1-yl)methanone] | 794 | > 1000 |
| O=C(N[C@@H]1C2CC[C@@H](C2)[C@@H]1CO)c1cnn2ccc(N3CCC[C@@H]3c3cncc(F)c3)nc12 [Example 138, 5-((R)-2-(5-fluoropyridin-3-yl)pyrrolidin-1-yl)-N-((2R,3S,4S)-3-(hydroxymethyl)bicyclo[2.2.1]heptan-2-yl)pyrazolo[1,5-a]pyrimidine-3-carboxamide] | 34.8 | > 1000 |
| NCCCNC(=O)c1cnn2ccc(N3CCC[C@@H]3c3cc(F)c[nH]c3=O)nc12 [Example 142, (R)—N-(3-aminopropyl)-5-(2-(5-fluoro-2-oxo-1,2-dihydropyridin-3-yl)pyrrolidin-1-yl)pyrazolo[1,5-a]pyrimidine-3-carboxamide] | 12.7 | > 1000 |
| COc1ncc(F)cc1[C@H]1CCCN1c1ccn2ncc(C(=O)NOCCOC(C)(C)C)c2n1 [Example 152, (R)-N-(2-tert-butoxyethoxy)-5-(2-(5-fluoro-2-methoxypyridin-3-yl)pyrrolidin-1-yl)pyrazolo[1,5-a]pyrimidine-3-carboxamide] | 18.1 | > 1000 |
